Experimental data: patent US9969766B2, “20(R)-ginsenoside Rg3 polyacylated derivatives, preparation and application thereof” (priority 2014, dated 2018)
Read-outs that look alike come from different tables or passages of the source.

What was measured:
Conditions in all cases: po × 14bid
[1] = system: human intestinal cancer LOVO cells
Text: (§1) human breast cancer Bcap-37 model, human lung cancer A549 model, human intestinal cancer LOVO model, human stomach cancer MGC model and human liver cancer QGY model, with tumor cell lines being of the second generation or more, mouse B16 melanoma cell line, mouse Lewis lung cancer model, mouse sarcoma s180 model, all passaged and preserved in Pharmacological Division of Shanghai Institute of Pharmaceutical Industry. 3. Experiment Animals Origins: nude mice, 6-week old, 18-22 g/mouse, provided by Laboratory Animal Center of Chinese Academy of Sciences, Shanghai Branch, with certification No. 2001A032. C57BL/6 mice and Kunming mice, 18-22 g/mouse, provided by Laboratory Animal Center of Chinese Academy of Sciences, Shanghai Branch, with certification SYXK (Shanghai) 2004-0015. Gender: male or female, the same gender for each batch in experiment Animal numbers: 10 mice and 10 nude mice for each of positive control group and test group in experiment, and 20 for negative control group. 4. Experiment Design Dose Settings: doses for 20(R)-ginsenoside Rg3 octo-acetate, 20(R)-ginsenoside Rg3 octo-n-butyrate and 20(R)-ginsenoside Rg3 octo-n-propionate were set as high-dose group (0.3 mg/kg/d), medium-dose group (0.06 mg/kg/d), and low-dose group (0.012 mg/kg/d). Dosage regimen: oral administration, twice daily. human tumor model and cell-inoculated mouse model: po×14 bid; mouse tumor-inoculated model: po×10 bid. Control Trial: negative control group: given with the same volume of 5% CMC-Na as the test group, and the same dosage regimen as the test group. positive control group: Cyclophosphamide CTX 30 mg/kg, […] 5. Experiment Method and Key Steps 5.1 Anti-Tumor Test 5.1.1 Subcutaneous Inoculation Model
LOVO intestinal cancer cells (cultured in vitro) of logarithmic growth stage were taken under sterile condition and prepared into cell suspensions of about 1.8×10^7/ml using RPMI1640 culture medium as diluent. The nude mice were subjected to general anesthesia and cut in belly after routine disinfection to belly skin, the spleens were taken out and inoculated with LOVO intestinal cancer cell suspensions (0.05 ml/mouse) and then restored, the incisions were sutured, and the mice were placed in the cages and then put in the laminar flow rack.

[2] = system: human breast cancer Bcap-37 cells; assay: Human breast cancer Bcap-37 subcutaneous inoculation in nude mice
Text: as §1, with “group:” for “group: Cyclophosphamide CTX 30 mg/kg,”
(§2) Tumor cells of vigorous growth stage were taken under sterile condition and made into cell suspensions of about 1-2×10^7/ml by homogenization, the suspensions were inoculated subcutaneously at 0.2 ml/mouse in host mice and repeated on the next day according to the experiment design, the animals in each group were slaughtered after about three weeks, the tumors were collected and weighed, and the tumor inhibition rates were calculated according to the following equation: tumor inhibition rate %=[(average tumor weight of control group-average tumor weight of treatment group)/average tumor weight of control group]×100%
The same operation was repeated in human tumor xenograft model, except that the feed, packing, cage and contact instruments were all sterilized under high pressure before use and the nude mice were fed in a laminar flow rack. The tumors and tumor-bearing animal weight gains were dynamically measured (tumor size measured using caliper: long diameter/a, short diameter/b, and tumor bulk=a×b^2/2).

mouse Lewis lung cancer = assay: Mouse Lewis lung cancer (subcutaneous inoculation) metastasis model
Text: human breast cancer Bcap-37 model, human lung cancer A549 model, human intestinal cancer LOVO model, human stomach cancer MGC model and human liver cancer QGY model, with tumor cell lines being of the second generation or more, mouse B16 melanoma cell line, mouse Lewis lung cancer model, mouse sarcoma s180 model, all passaged and preserved in Pharmacological Division of Shanghai Institute of Pharmaceutical Industry. 3. Experiment Animals Origins: nude mice, 6-week old, 18-22 g/mouse, provided by Laboratory Animal Center of Chinese Academy of Sciences, Shanghai Branch, with certification No. 2001A032. C57BL/6 mice and Kunming mice, 18-22 g/mouse, provided by Laboratory Animal Center of Chinese Academy of Sciences, Shanghai Branch, with certification SYXK (Shanghai) 2004-0015. Gender: male or female, the same gender for each batch in experiment Animal numbers: 10 mice and 10 nude mice for each of positive control group and test group in experiment, and 20 for negative control group. 4. Experiment Design Dose Settings: doses for 20(R)-ginsenoside Rg3 octo-acetate, 20(R)-ginsenoside Rg3 octo-n-butyrate and 20(R)-ginsenoside Rg3 octo-n-propionate were set as high-dose group (0.3 mg/kg/d), medium-dose group (0.06 mg/kg/d), and low-dose group (0.012 mg/kg/d). Dosage regimen: oral administration, twice daily. human tumor model and cell-inoculated mouse model: po×14 bid; mouse tumor-inoculated model: po×10 bid. Control Trial: negative control group: given with the same volume of 5% CMC-Na as the test group, and the same dosage regimen as the test group. positive control group: Cyclophosphamide CTX 30 mg/kg, MMC 2 mg/kg and 5Fu 30 mg/kg by intraperitoneal or intravenous administration, once daily, for seven consecutive days. 5. Experiment Method and Key Steps 5.1 Anti-Tumor Test 5.1.1 Subcutaneous Inoculation Model
as §2

SMILES: CC(=O)OC[C@H]1O[C@@H](OC2CC[C@]3(C)C(CC[C@@]4(C)C3C[C@H](OC(C)=O)C3C([C@@](C)(O)CCC=C(C)C)CC[C@@]34C)C2(C)C)[C@H](OC2O[C@H](COC(C)=O)[C@@H](OC(C)=O)[C@H](OC(C)=O)[C@H]2OC(C)=O)[C@@H](OC(C)=O)[C@@H]1OC(C)=O (stereo partly drawn) [Rg3-octo-acetate, 20 (R)-ginsenoside Rg3 octaacetate]
- Average survival (d) X ± SD ([1]; 0.012 mg/kg/d): 24.59 ± 4.5 days
- Life extension rate T/C × % ([1]; 0.012 mg/kg/d): 179.99%
- Average survival (d) X ± SD ([1]; 0.06 mg/kg/d): 25.80 ± 4.8 days
- Life extension rate T/C × % ([1]; 0.06 mg/kg/d): 188.90%
- Average survival (d) X ± SD ([1]; 0.3 mg/kg/d): 31.50 ± 5.1 days
- Life extension rate T/C × % ([1]; 0.3 mg/kg/d): 230.59%
- Tumor inhibition rate % ([2]; 0.012 mg/kg/d): 47.93%
- Tumor weight (g) X ± SD ([2]; 0.012 mg/kg/d): 0.672 ± 0.07 g
- Tumor inhibition rate % ([2]; 0.06 mg/kg/d): 59.69%
- Tumor weight (g) X ± SD ([2]; 0.06 mg/kg/d): 0.520 ± 0.08 g
- Tumor inhibition rate % ([2]; 0.3 mg/kg/d): 68.98%
- Tumor weight (g) X ± SD ([2]; 0.3 mg/kg/d): 0.400 ± 0.09 g
- Anti-metastasis rate % (mouse Lewis lung cancer; 0.012 mg/kg/d): 50.30%
- Lung clone numbers (mice) X ± SD (mouse Lewis lung cancer; 0.012 mg/kg/d): 1.38 ± 0.13
- Anti-metastasis rate % (mouse Lewis lung cancer; 0.06 mg/kg/d): 58.90%
- Lung clone numbers (mice) X ± SD (mouse Lewis lung cancer; 0.06 mg/kg/d): 1.14 ± 0.12
- Anti-metastasis rate % (mouse Lewis lung cancer; 0.3 mg/kg/d): 69.96%
- Lung clone numbers (mice) X ± SD (mouse Lewis lung cancer; 0.3 mg/kg/d): 0.84 ± 0.15
